According to PubChem BioAssay (NCI):
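Where inhibition never reached the appropriate level, the endpoint shown equals the highest concentration tested. Otherwise, values were interpolated linearly from a five-concentration, 48-hour dose response in 96-well plates. GI50: concentration for 50% inhibition of growth. TGI denotes the concentration required for complete inhibition of growth.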

How the values were obtained:
Assay in all cases: NCI-60 cell line screen, 48 h
SK-MEL-5 melanoma = system: SK-MEL-5 melanoma
SK-MEL-2 melanoma = system: SK-MEL-2 melanoma
UO-31 renal = system: UO-31 renal
NCI/ADR-RES ovarian = system: NCI/ADR-RES ovarian
HOP-92 NSCLC = system: HOP-92 NSCLC
SR leukemia = system: SR leukemia
IGROV1 ovarian = system: IGROV1 ovarian
LOX IMVI melanoma = system: LOX IMVI melanoma
HS 578T breast = system: HS 578T breast
TK-10 renal = system: TK-10 renal
OVCAR-5 ovarian = system: OVCAR-5 ovarian
HCT-116 colon = system: HCT-116 colon
NCI-H522 lung = system: NCI-H522 lung
CAKI-1 renal = system: CAKI-1 renal
BT-549 breast = system: BT-549 breast
DU-145 prostate = system: DU-145 prostate
COLO 205 colon = system: COLO 205 colon
K-562 leukemia = system: K-562 leukemia
MDA-MB-231 breast = system: MDA-MB-231 breast
HOP-62 NSCLC = system: HOP-62 NSCLC
ACHN renal = system: ACHN renal
NCI-H460 lung = system: NCI-H460 lung
SF-295 CNS = system: SF-295 CNS
UACC-257 melanoma = system: UACC-257 melanoma
UACC-62 melanoma = system: UACC-62 melanoma
A498 renal = system: A498 renal
KM12 colon = system: KM12 colon
A549 NSCLC = system: A549 NSCLC
OVCAR-3 ovarian = system: OVCAR-3 ovarian
OVCAR-4 ovarian = system: OVCAR-4 ovarian
CCRF-CEM leukemia = system: CCRF-CEM leukemia
HCT-15 colon = system: HCT-15 colon
RXF 393 renal = system: RXF 393 renal
T-47D breast = system: T-47D breast
SW-620 colon = system: SW-620 colon
HT29 colon = system: HT29 colon
SNB-75 CNS = system: SNB-75 CNS
MCF7 breast = system: MCF7 breast
SF-539 CNS = system: SF-539 CNS
SK-OV-3 ovarian = system: SK-OV-3 ovarian
U251 CNS = system: U251 CNS
SK-MEL-28 melanoma = system: SK-MEL-28 melanoma
PC-3 prostate = system: PC-3 prostate
OVCAR-8 ovarian = system: OVCAR-8 ovarian
MOLT-4 leukemia = system: MOLT-4 leukemia
RPMI-8226 leukemia = system: RPMI-8226 leukemia
NCI-H226 lung = system: NCI-H226 lung
SN12C renal = system: SN12C renal
EKVX NSCLC = system: EKVX NSCLC
SF-268 CNS = system: SF-268 CNS
HCC-2998 colon = system: HCC-2998 colon
786-0 renal = system: 786-0 renal
SNB-19 CNS = system: SNB-19 CNS
HL-60(TB) leukemia = system: HL-60(TB) leukemia
MDA-MB-435 = system: MDA-MB-435

Work on `CN1C(=O)N(c2ccccc2)C2N=C(N/N=C/c3ccccc3)SC21` (stereo not given) yielded a GI50 (SK-MEL-5 melanoma) of 6.05 µM, a TGI (SK-MEL-5 melanoma) of 67.5 µM and a GI50 (SK-MEL-2 melanoma) of 1.1 µM. It also gave a TGI (SK-MEL-2 melanoma) of over 100 µM, a GI50 (UO-31 renal) of 3.18 µM and a TGI (UO-31 renal) of over 100 µM. The GI50 (NCI/ADR-RES ovarian) was 1.05 µM, the TGI (NCI/ADR-RES ovarian) was over 100 µM and the GI50 (HOP-92 NSCLC) was 0.648 µM. The TGI (HOP-92 NSCLC) was over 100 µM, the GI50 (SR leukemia) was 0.38 µM and the TGI (SR leukemia) was over 100 µM. The GI50 (IGROV1 ovarian) was 3.86 µM, the TGI (IGROV1 ovarian) was over 100 µM and the GI50 (LOX IMVI melanoma) was 0.931 µM. The TGI (LOX IMVI melanoma) was over 100 µM, the GI50 (HS 578T breast) was 1.7 µM and the TGI (HS 578T breast) was over 100 µM. For the same compound, the GI50 (TK-10 renal) was over 100 µM, the TGI (TK-10 renal) was over 100 µM and the GI50 (OVCAR-5 ovarian) was 4.22 µM. It also gave a TGI (OVCAR-5 ovarian) of over 100 µM, a GI50 (HCT-116 colon) of 0.71 µM and a TGI (HCT-116 colon) of over 100 µM. The GI50 (NCI-H522 lung) was 0.304 µM, the TGI (NCI-H522 lung) was 1.58 µM and the GI50 (CAKI-1 renal) was 0.685 µM. It also gave a TGI (CAKI-1 renal) of over 100 µM, a GI50 (BT-549 breast) of 0.885 µM and a TGI (BT-549 breast) of 13.7 µM. For the same compound, the GI50 (DU-145 prostate) was 3.61 µM, the TGI (DU-145 prostate) was over 100 µM and the GI50 (COLO 205 colon) was 1.52 µM. It also gave a TGI (COLO 205 colon) of 5.16 µM, a GI50 (K-562 leukemia) of 0.447 µM and a TGI (K-562 leukemia) of over 100 µM. It also gave a GI50 (MDA-MB-231 breast) of 3.62 µM, a TGI (MDA-MB-231 breast) of 82.6 µM and a GI50 (HOP-62 NSCLC) of 2.5 µM. The TGI (HOP-62 NSCLC) was over 100 µM, the GI50 (ACHN renal) was 5.19 µM and the TGI (ACHN renal) was over 100 µM. For the same compound, the GI50 (NCI-H460 lung) was 1.04 µM, the TGI (NCI-H460 lung) was 19.9 µM and the GI50 (SF-295 CNS) was 0.622 µM. The TGI (SF-295 CNS) was over 100 µM, the GI50 (UACC-257 melanoma) was 28.7 µM and the TGI (UACC-257 melanoma) was over 100 µM. It also gave a GI50 (UACC-62 melanoma) of 0.577 µM, a TGI (UACC-62 melanoma) of over 100 µM and a GI50 (A498 renal) of over 100 µM. It also gave a TGI (A498 renal) of over 100 µM, a GI50 (KM12 colon) of 0.819 µM and a TGI (KM12 colon) of over 100 µM. The GI50 (A549 NSCLC) was 2.48 µM, the TGI (A549 NSCLC) was over 100 µM and the GI50 (OVCAR-3 ovarian) was 0.556 µM. The TGI (OVCAR-3 ovarian) was over 100 µM, the GI50 (OVCAR-4 ovarian) was 14.5 µM and the TGI (OVCAR-4 ovarian) was over 100 µM. It also gave a GI50 (CCRF-CEM leukemia) of 1.93 µM, a TGI (CCRF-CEM leukemia) of over 100 µM and a GI50 (HCT-15 colon) of 0.553 µM. The TGI (HCT-15 colon) was over 100 µM, the GI50 (RXF 393 renal) was 0.873 µM and the TGI (RXF 393 renal) was 3.16 µM. The GI50 (T-47D breast) was 2.93 µM, the TGI (T-47D breast) was over 100 µM and the GI50 (SW-620 colon) was 0.659 µM. The TGI (SW-620 colon) was over 100 µM, the GI50 (HT29 colon) was 0.935 µM and the TGI (HT29 colon) was 8.04 µM. It also gave a GI50 (SNB-75 CNS) of 0.363 µM, a TGI (SNB-75 CNS) of 7.7 µM and a GI50 (MCF7 breast) of 0.456 µM. For the same compound, the TGI (MCF7 breast) was over 100 µM, the GI50 (SF-539 CNS) was 1.34 µM and the TGI (SF-539 CNS) was 7.91 µM. It also gave a GI50 (SK-OV-3 ovarian) of 2.82 µM, a TGI (SK-OV-3 ovarian) of over 100 µM and a GI50 (U251 CNS) of 1.83 µM. The TGI (U251 CNS) was over 100 µM, the GI50 (SK-MEL-28 melanoma) was 16.8 µM and the TGI (SK-MEL-28 melanoma) was over 100 µM. The GI50 (PC-3 prostate) was 1.59 µM, the TGI (PC-3 prostate) was over 100 µM and the GI50 (OVCAR-8 ovarian) was 3.56 µM. The TGI (OVCAR-8 ovarian) was over 100 µM, the GI50 (MOLT-4 leukemia) was 2.38 µM and the TGI (MOLT-4 leukemia) was over 100 µM. For the same compound, the GI50 (RPMI-8226 leukemia) was 3.24 µM, the TGI (RPMI-8226 leukemia) was over 100 µM and the GI50 (NCI-H226 lung) was 2.28 µM. The TGI (NCI-H226 lung) was 66.6 µM, the GI50 (SN12C renal) was 4.46 µM and the TGI (SN12C renal) was over 100 µM. The GI50 (EKVX NSCLC) was 3.73 µM, the TGI (EKVX NSCLC) was over 100 µM and the GI50 (SF-268 CNS) was 5.49 µM. For the same compound, the TGI (SF-268 CNS) was over 100 µM, the GI50 (HCC-2998 colon) was 2.25 µM and the TGI (HCC-2998 colon) was 53.2 µM. It also gave a GI50 (786-0 renal) of 4.21 µM, a TGI (786-0 renal) of over 100 µM and a GI50 (SNB-19 CNS) of 3.77 µM. It also gave a TGI (SNB-19 CNS) of over 100 µM, a GI50 (HL-60(TB) leukemia) of 0.452 µM and a TGI (HL-60(TB) leukemia) of 6.58 µM. For the same compound, the GI50 (MDA-MB-435) was 0.203 µM and the TGI (MDA-MB-435) was 0.508 µM.
